Reference: patent US4327097A, “Novel penicillins” (Toyama Chemical Co., Ltd., priority 1974, dated 1982)
In brackets after ≈: the same amount, converted by molar mass.

What was measured:
[1] = tested on: mouse; assay: Toxicity, LD50 i.v. in mouse; assay type: in vivo; settings: i.v. in mouse having a weight of 19±1 g
Text: The present penicillins and cephalosporins have generally low toxicity.

[2] = tested on: Staphylococcus aureus; assay: MIC against clinical isolates; assay type: cell-based; settings: unit assumed
[3] = tested on: Pseudomonas aeruginosa I.F.O.; assay: MIC, plate method, standard strains; assay type: cell-based; settings: unit assumed
Procedure, shortened: (§1)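 Agar plate dilution on Heart infusion agar (pH 7.4); inoculum 10^4 cells per plate from a 10^6 cells/ml suspension. MIC taken as the lowest concentration inhibiting growth.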

[4] = tested on: Staphylococcus aureus 209p; assay: MIC, plate method, standard strains; assay type: cell-based; settings: unit assumed
Procedure, shortened: as §1

[5] = tested on: Klebsiella pneumoniae; assay: MIC, plate method, standard strains; assay type: cell-based; settings: unit assumed
Procedure, shortened: as §1

[6] = tested on: Escherichia coli NIHJ; assay: MIC, plate method, standard strains; assay type: cell-based; settings: unit assumed
Procedure, shortened: as §1

[7] = tested on: Proteus vulgaris 3027; assay: MIC, plate method, standard strains; assay type: cell-based; settings: unit assumed
Procedure, shortened: as §1

[8] = tested on: Escherichia coli; assay: MIC against clinical isolates; assay type: cell-based; settings: unit assumed
[9] = tested on: Proteus mirabilis; assay: MIC against clinical isolates; assay type: cell-based; settings: unit assumed
[10] = tested on: Klebsiella pneumoniae; assay: MIC against clinical isolates; assay type: cell-based; settings: unit assumed
[11] = tested on: Salmonella typhi-murium; assay: MIC against clinical isolates; assay type: cell-based; settings: Table 5-5, clinical isolate; unit assumed
[12] = tested on: Proteus rettgeri; assay: MIC against clinical isolates; assay type: cell-based; settings: unit assumed
[13] = tested on: Proteus vulgaris; assay: MIC against clinical isolates; assay type: cell-based; settings: unit assumed
[14] = tested on: Pseudomonas aeruginosa; assay: MIC against clinical isolates; assay type: cell-based; settings: unit assumed; for MIC Pseudomonas aeruginosa GN: strain number not given
[15] = tested on: Shigella flexneri; assay: MIC against clinical isolates; assay type: cell-based; settings: Table 5-5, clinical isolate; unit assumed
Description: (§2) The minimum inhibitory concentration (MIC) was determined by the plate method disclosed in "Chemotherapy" (Japan), Vol. 16, (1968), pages 98-99. The culture medium used was a Heart infusion agar (pH 7.4). The number of the cells per plate used in the inoculum was 10^4 (10^6 cells/ml).
(§3) MIC was determined in the same manner as in the preceding paragraph (1).

[16] = tested on: Shigella sonnei; assay: MIC against clinical isolates; assay type: cell-based; settings: Table 5-5, clinical isolate; unit assumed
Description: as §2, §3

[17] = tested on: β-lactamase, Pseudomonas aeruginosa GN 238; assay: Resistant activity against β-lactamase, iodometric assay; assay type: biochemical; settings: β-lactamase from Pseudomonas aeruginosa GN 238; Potassium Penicillin G = 100
Procedure, shortened: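 Crude β-lactamase was the sonicated-cell supernatant from P. aeruginosa GN 238, grown 6 h at 37 °C and washed in 0.1 M phosphate pH 7.0. Compound stability to the enzyme measured iodometrically; values are relative activity with potassium penicillin G set at 100.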

[18] = tested on: Proteus morganii; assay: MIC against clinical isolates; assay type: cell-based; settings: Table 6-5, clinical isolate; unit assumed
[19] = biological target: T1, β-lactamase, Proteus vulgaris GN 76 (Proteus vulgaris, UniProt P52664); assay: Resistant activity against β-lactamase, iodometric assay; assay type: biochemical; settings: control Cephalorizine = 100
T1 construct: By using the supernatant of enzyme fluid; endogenous in cells; host or cells: Proteus vulgaris GN 76 (penicillin G-induced cells, sonicated, 15,000 r.p.m. supernatant)
Procedure, shortened: (§4)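 β-Lactamase was induced with Penicillin G (50 μg/ml) in shaking cultures at 37° C, and crude enzyme was taken as sonicated-cell supernatant in 0.1 M phosphate buffer pH 7.0. Compound stability was measured iodometrically. Values are relative activity, with control Cephalorizine set as 100.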

[20] = biological target: β-lactamase, Escherichia freundii GN 346 (Citrobacter freundii, UniProt Q46041); assay: as above; assay type: biochemical; settings: control Cephalorizine = 100
Procedure, shortened: as §4

T1 sequence (P52664 30-300): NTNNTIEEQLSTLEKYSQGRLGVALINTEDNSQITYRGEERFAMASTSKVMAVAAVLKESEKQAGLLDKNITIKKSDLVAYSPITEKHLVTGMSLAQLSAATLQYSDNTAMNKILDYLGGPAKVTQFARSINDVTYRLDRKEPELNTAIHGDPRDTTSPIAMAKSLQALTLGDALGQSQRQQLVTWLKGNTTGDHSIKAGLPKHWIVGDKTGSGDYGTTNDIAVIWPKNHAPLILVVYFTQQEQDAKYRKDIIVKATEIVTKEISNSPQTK
β-lactamase, Escherichia freundii GN 346, sequence (Q46041 entry or part of it): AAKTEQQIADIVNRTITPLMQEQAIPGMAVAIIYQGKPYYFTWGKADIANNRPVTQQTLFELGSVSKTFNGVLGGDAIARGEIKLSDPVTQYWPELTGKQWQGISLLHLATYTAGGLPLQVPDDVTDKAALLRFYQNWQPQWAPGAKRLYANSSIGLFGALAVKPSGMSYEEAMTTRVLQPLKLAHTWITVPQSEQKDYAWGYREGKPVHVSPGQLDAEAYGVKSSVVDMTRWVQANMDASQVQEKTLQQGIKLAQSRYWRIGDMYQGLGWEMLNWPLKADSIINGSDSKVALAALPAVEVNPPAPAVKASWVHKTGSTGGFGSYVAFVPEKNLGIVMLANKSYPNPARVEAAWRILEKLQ

CCN1CCN(C(=O)N[C@@H](C(=O)N[C@@H]2C(=O)N3[C@@H]2SC(C)(C)[C@@H]3C(=O)O)c2ccccc2)C(=O)C1=O
LD50 [1]: greater than 5 g/kg

CC(C)N1CCN(C(=O)NC(C(=O)NC2C(=O)N3C2SC(C)(C)C3C(=O)O)c2ccccc2)C(=O)C1=O (single isomer, unassigned) [Compound 40]
MIC Staphylococcus aureus F-1 ([2]; Table 5-1, clinical isolate): 6.25 µg/mL (≈ 11.8 µM) | MIC Staphylococcus aureus F-2 ([2]; Table 5-1, clinical isolate): 3.13 µg/mL (≈ 5.89 µM) | MIC Staphylococcus aureus F-4 ([2]; Table 5-1, clinical isolate): 6.25 µg/mL (≈ 11.8 µM) | MIC Staphylococcus aureus F-5 ([2]; Table 5-1, clinical isolate): > 200 µg/mL | MIC Staphylococcus aureus MS 8588 ([2]; Table 5-1, clinical isolate): 3.13 µg/mL (≈ 5.89 µM) | MIC Staphylococcus aureus MS 8596 ([2]; Table 5-1, clinical isolate): 3.13 µg/mL (≈ 5.89 µM) | MIC Staphylococcus aureus MS 8684 ([2]; Table 5-1, clinical isolate): 3.13 µg/mL (≈ 5.89 µM) | MIC Pseudomonas aeruginosa I.F.C ([3]; Table 3, standard strain): 6.25 µg/mL (≈ 11.8 µM) | MIC Staphylococcus aureus 209p ([4]; Table 3, standard strain, Heart infusion agar pH 7.4): 0.4 µg/mL (≈ 0.752 µM) | MIC Klebsiella pneumoniae ([5]; Table 3, standard strain): 3.13 µg/mL (≈ 5.89 µM) | MIC Esche--richin coil NIHJ ([6]; Table 3, standard strain): < 0.1 µg/mL | MIC Proteus vulgaris 3027 ([7]; Table 3, standard strain): 0.4 µg/mL (≈ 0.752 µM) | MIC Escherichia coli GN 3452 ([8]; Table 5-2, clinical isolate): 1.57 µg/mL (≈ 2.95 µM) | MIC Escherichia coli GN 3465 ([8]; Table 5-2, clinical isolate): 50 µg/mL (≈ 94.1 µM) | MIC Escherichia coli GN 3481 ([8]; Table 5-2, clinical isolate): 1.57 µg/mL (≈ 2.95 µM) | MIC Escherichia coli GN 3611 ([8]; Table 5-2, clinical isolate): > 200 µg/mL | MIC Escherichia coli K-1 ([8]; Table 5-2, clinical isolate): 1.57 µg/mL (≈ 2.95 µM) | MIC Escherichia coli K-2 ([8]; Table 5-2, clinical isolate): 3.13 µg/mL (≈ 5.89 µM) | MIC Escherichia coli K-3 ([8]; Table 5-2, clinical isolate): > 200 µg/mL | MIC Proteus mirabilis ([9]; Table 5-6, clinical isolate): < 0.4 µg/mL | MIC Klebsiella pneumoniae GN 917 ([10]; Table 5-4, clinical isolate): 6.25 µg/mL (≈ 11.8 µM) | MIC Klebsiella pneumoniae GN 4081 ([10]; Table 5-4, clinical isolate): 100 µg/mL (≈ 188 µM) | MIC Klebsiella pneumoniae GN 4117 ([10]; Table 5-4, clinical isolate): 50 µg/mL (≈ 94.1 µM) | MIC Salmonella typhi-murium SL 2136 [11]: > 200 µg/mL | MIC Proteus rettgeri ([12]; Table 5-6, clinical isolate): 6.25 µg/mL (≈ 11.8 µM) | MIC Proteus vulgaris ([13]; Table 5-6, clinical isolate): < 0.4 µg/mL | MIC Pseudomonas aeruginosa GN ([14]; Table 5-3, clinical isolate): 6.25 µg/mL (≈ 11.8 µM) | MIC Pseudomonas aeruginosa GN 82 ([14]; Table 5-3, clinical isolate): 6.25 µg/mL (≈ 11.8 µM) | MIC Pseudomonas aeruginosa GN 163 ([14]; Table 5-3, clinical isolate): 6.25 µg/mL (≈ 11.8 µM) | MIC Pseudomonas aeruginosa GN 221 ([14]; Table 5-3, clinical isolate): 6.25 µg/mL (≈ 11.8 µM) | MIC Pseudomonas aeruginosa GN 376 ([14]; Table 5-3, clinical isolate): 3.13 µg/mL (≈ 5.89 µM) | MIC Pseudomonas aeruginosa GN 383 ([14]; Table 5-3, clinical isolate): 6.25 µg/mL (≈ 11.8 µM) | MIC Pseudomonas aeruginosa GN 1091 ([14]; Table 5-3, clinical isolate): 6.25 µg/mL (≈ 11.8 µM) | MIC Pseudomonas aeruginosa GN 2987 ([14]; Table 5-3, clinical isolate): 3.13 µg/mL (≈ 5.89 µM) | MIC Shigella flexneri JS 11215 [15]: 50 µg/mL (≈ 94.1 µM) | MIC Shigella flexneri JS 11839 [15]: 3.13 µg/mL (≈ 5.89 µM) | MIC Shigella sonnei JS 11232 [16]: 50 µg/mL (≈ 94.1 µM) | MIC Shigella sonnei JS 11755 [16]: 3.13 µg/mL (≈ 5.89 µM) | Relative activity (%), resistant activity against β-lactamase [17]: 15%

CCN1CCN(C(=O)NC(C(=O)NC2C(=O)N3C(C(=O)O)=C(CSc4nnnn4C)CSC23)c2ccc(O)cc2)C(=O)C1=O (stereo not drawn) [Compound No. 72]
MIC Staphylococcus aureus F-1 ([2]; Table 6-1, clinical isolate): 1.56 µg/mL (≈ 2.42 µM) | MIC Staphylococcus aureus MS 8588 ([2]; Table 6-1, clinical isolate): 1.56 µg/mL (≈ 2.42 µM) | MIC Staphylococcus aureus MS 8596 ([2]; Table 6-1, clinical isolate): 3.13 µg/mL (≈ 4.85 µM) | MIC Staphylococcus aureus MS 8619 ([2]; Table 6-1, clinical isolate): 1.56 µg/mL (≈ 2.42 µM) | MIC Staphylococcus aureus MS 8684 ([2]; Table 6-1, clinical isolate): 1.56 µg/mL (≈ 2.42 µM) | MIC Pseudomonas aeruginosa I.F.O. ([3]; Table 4, standard strain): 6.25 µg/mL (≈ 9.68 µM) | MIC Staphylococcus aureus 209p ([4]; Table 4, standard strain): < 1.57 µg/mL | MIC Klebsiella pneumoniae ([5]; Table 4, standard strain): < 0.1 µg/mL | MIC Escherichia coli NIHJ ([6]; Table 4, standard strain): < 0.1 µg/mL | MIC Proteus vulgaris 3027 ([7]; Table 4, standard strain): 0.4 µg/mL (≈ 0.62 µM) | MIC Escherichia coli GN 3435 ([8]; Table 6-2, clinical isolate): 0.1 µg/mL (≈ 0.155 µM) | MIC Escherichia coli GN 3452 ([8]; Table 6-2, clinical isolate): 0.2 µg/mL (≈ 0.31 µM) | MIC Escherichia coli GN 3465 ([8]; Table 6-2, clinical isolate): 1.56 µg/mL (≈ 2.42 µM) | MIC Escherichia coli K-2 ([8]; Table 6-2, clinical isolate): 0.39 µg/mL (≈ 0.604 µM) | MIC Escherichia coli K-4 ([8]; Table 6-2, clinical isolate): 0.39 µg/mL (≈ 0.604 µM) | MIC Proteus mirabilis ([9]; Table 6-5, clinical isolate): 0.78 µg/mL (≈ 1.21 µM) | MIC Klebsiella pneumoniae GN 917 ([10]; Table 6-4, clinical isolate): 0.2 µg/mL (≈ 0.31 µM) | MIC Klebsiella pneumoniae GN 4081 ([10]; Table 6-4, clinical isolate): 1.56 µg/mL (≈ 2.42 µM) | MIC Proteus morganii [18]: 0.78 µg/mL (≈ 1.21 µM) | Relative activity (%) against β-lactamase, Pr. vulgaris GN 76 [19]: 7% | Relative activity (%) against β-lactamase, E. freundii GN 346 [20]: 0.2% | MIC Proteus rettgeri ([12]; Table 6-5, clinical isolate): 1.56 µg/mL (≈ 2.42 µM) | MIC Proteus vulgaris ([13]; Table 6-5, clinical isolate): 0.39 µg/mL (≈ 0.604 µM) | MIC Pseudomonas aeruginosa GN ([14]; Table 6-3, clinical isolate): 12.5 µg/mL (≈ 19.4 µM) | MIC Pseudomonas aeruginosa GN4 ([14]; Table 6-3, clinical isolate): 12.5 µg/mL (≈ 19.4 µM) | MIC Pseudomonas aeruginosa GN 82 ([14]; Table 6-3, clinical isolate): 6.25 µg/mL (≈ 9.68 µM) | MIC Pseudomonas aeruginosa GN 221 ([14]; Table 6-3, clinical isolate): 6.25 µg/mL (≈ 9.68 µM) | MIC Pseudomonas aeruginosa GN 376 ([14]; Table 6-3, clinical isolate): 6.25 µg/mL (≈ 9.68 µM) | MIC Pseudomonas aeruginosa GN 1035 ([14]; Table 6-3, clinical isolate): 25 µg/mL (≈ 38.7 µM) | MIC Pseudomonas aeruginosa GN 1091 ([14]; Table 6-3, clinical isolate): 6.25 µg/mL (≈ 9.68 µM) | MIC Pseudomonas aeruginosa GN 2565 ([14]; Table 6-3, clinical isolate): 25 µg/mL (≈ 38.7 µM) | MIC Pseudomonas aeruginosa S-1 ([14]; Table 6-4, clinical isolate): 12.5 µg/mL (≈ 19.4 µM)
